Measured values: the supplement of paper PMC13380429

Columns and labels:
Conditions in all cases: 72 h
[1] = system: Caco-2; test: cell viability relative to DMSO; higher = less toxic
[2] = system: Vero E6; test: as above
[3] = system: Calu-3; test: as above
[4] = system: HepG2; test: as above
[5] = system: U2OS; test: as above
[6] = system: Caco-2; test: relative viability EC50 (midpoint between 100% and the lowest measured viability); higher = less toxic
[7] = system: Vero E6; test: as above
[8] = system: Calu-3; test: as above
[9] = system: HepG2; test: as above
[10] = system: U2OS; test: as above
[11] = system: Caco-2; test: drug sensitivity score (DSS) for viability; higher = more toxic; extreme values may be limits of the assay
[12] = system: Vero E6; test: as above
[13] = system: Calu-3; test: as above
[14] = system: HepG2; test: as above
[15] = system: U2OS; test: as above

Row | SMILES | cell viability ([1]; 1 nM) | cell viability ([1]; 10 nM) | cell viability ([1]; 100 nM) | cell viability ([1]; 1000 nM) | cell viability ([1]; 10000 nM) | cell viability ([2]; 1 nM) | cell viability ([2]; 10 nM) | cell viability ([2]; 100 nM) | cell viability ([2]; 1000 nM) | cell viability ([2]; 10000 nM) | cell viability ([3]; 1 nM) | cell viability ([3]; 10 nM) | cell viability ([3]; 100 nM) | cell viability ([3]; 1000 nM) | cell viability ([3]; 10000 nM) | cell viability ([4]; 1 nM) | cell viability ([4]; 10 nM) | cell viability ([4]; 100 nM) | cell viability ([4]; 1000 nM) | cell viability ([4]; 10000 nM) | cell viability ([5]; 1 nM) | cell viability ([5]; 10 nM) | cell viability ([5]; 100 nM) | cell viability ([5]; 1000 nM) | cell viability ([5]; 10000 nM) | relative viability EC50 [6] | relative viability EC50 [7] | relative viability EC50 [8] | relative viability EC50 [9] | relative viability EC50 [10] | drug sensitivity score [11] | drug sensitivity score [12] | drug sensitivity score [13] | drug sensitivity score [14] | drug sensitivity score [15]
1 | COC(=O)[C@H]1[C@H]2C[C@@H]3c4[nH]c5cc(OC)ccc5c4CCN3C[C@H]2C[C@@H](OC(=O)c2cc(OC)c(OC)c(OC)c2)[C@@H]1OC [reserpine] | 110% | 90.1% | 96.4% | 91.9% | 101% | 112% | 95.2% | 96.6% | 104% | 97.1% | 107% | 92.5% | 109% | 102% | 111% | 106% | 93.5% | 81.3% | 96% | 96.6% | 98% | 97.7% | 95.8% | 94.8% | 99.2% | > 10 µM | > 10 µM | > 10 µM | > 10 µM | > 10 µM | 0 | 0 | 0 | 0 | 0
2 | COc1cc(O)c2c(c1)C(=O)c1cc(C)cc(O)c1C2=O [rheochrysidin] | 100% | 109% | 97.9% | 96.9% | 93.5% | 98.9% | 102% | 98.5% | 98.8% | 101% | 101% | 104% | 105% | 101% | 96.8% | 92.7% | 106% | 108% | 107% | 109% | 93.4% | 98.8% | 101% | 100% | 93.5% | > 10 µM | > 10 µM | > 10 µM | > 10 µM | > 10 µM | 0 | 0 | 0 | 0 | 0
3 | C1COC(NC(C2CC2)C2CC2)=N1 [rilmenidine] | 103% | 100% | 103% | 93.4% | 104% | 95.9% | 99.1% | 95.3% | 101% | 97.4% | 98.6% | 82.1% | 109% | 95.8% | 105% | 99.3% | 110% | 97.2% | 100% | 103% | 104% | 97% | 108% | 98.2% | 104% | > 10 µM | > 10 µM | > 10 µM | > 10 µM | > 10 µM | 0 | 0 | 0 | 0 | 0
4 | CC(C)c1nc(CN(C)C(=O)N[C@H](C(=O)N[C@@H](Cc2ccccc2)C[C@H](O)[C@H](Cc2ccccc2)NC(=O)OCc2cncs2)C(C)C)cs1 [ritonavir] | 97.8% | 94.3% | 96.3% | 100% | 77.5% | 94.4% | 97.5% | 89.4% | 102% | 108% | 102% | 87% | 93.7% | 102% | 98.6% | 98.6% | 104% | 94% | 107% | 110% | 105% | 97.5% | 98% | 94.5% | 95.4% | > 10 µM | > 10 µM | > 10 µM | > 10 µM | > 10 µM | 0.8 | 0 | 0 | 0 | 0
5 | CC(=O)N[C@@H](CC(=O)O)C(=O)N[C@@H](CCC(=O)O)C(=O)O [spaglumic-acid] | 105% | 98.1% | 101% | 94.6% | 101% | 93.6% | 105% | 101% | 102% | 100% | 89.7% | 93.3% | 100% | 97.2% | 105% | 101% | 108% | 91.5% | 114% | 95.5% | 101% | 96.2% | 104% | 102% | 102% | > 10 µM | > 10 µM | > 10 µM | > 10 µM | > 10 µM | 0 | 0 | 0 | 0 | 0
6 | Nc1ccc(S(=O)(=O)Nc2ccc(Cl)nn2)cc1 [sulfachlorpyridazine] | 99.6% | 93.4% | 94.8% | 106% | 106% | 97.8% | 95.3% | 101% | 97.1% | 103% | 109% | 91% | 98.5% | 104% | 109% | 93% | 105% | 105% | 108% | 107% | 98.8% | 93% | 100% | 102% | 103% | > 10 µM | > 10 µM | > 10 µM | > 10 µM | > 10 µM | 0 | 0 | 0 | 0 | 0
7 | CCCCC1(COC(=O)CCC(=O)O)C(=O)N(c2ccccc2)N(c2ccccc2)C1=O [suxibuzone] | 87.1% | 104% | 94% | 91.8% | 84.1% | 110% | 103% | 103% | 92.4% | 102% | 104% | 101% | 95.2% | 99.2% | 95.6% | 122% | 99.5% | 102% | 103% | 94.6% | 96.4% | 101% | 96.5% | 102% | 95.5% | > 10 µM | > 10 µM | > 10 µM | > 10 µM | > 10 µM | 0.2 | 0 | 0 | 0 | 0
